Here are results for 17 compounds from patent US10570129B2 (Zoetis Services LLC, priority 2015, dated 2020).

In one assay the test system is Haemonchus contortus L3. The experiment in a line: microbe, parasite or virus in culture. Type of assay: cell-based. The note with it: Haemonchus contortus, 96 h, read-out: HcL3 Minimal Effective Concentration (MEC).
Another assay has as its system D. immitis microfilariae. The experiment in a line: Dirofilaria immitis, microfilariae (DiMF) in vitro motility assay. The note with it: Dirofilaria immitis, 72 h, read-out: DiMF minimally effective dose (MEC). The class given is cell-based.

Consider `O=C(NCc1ccnc(Cl)c1)n1c2c(c3ccc(C(F)(F)F)cc31)CN(C/C=C/c1ccc(Cl)c(Cl)c1)CC2` [Example 158, (E)-N-((2-chloropyridin-4-yl)methyl)-2-(3-(3,4-dichlorophenyl)allyl)-7-(trifluoromethyl)-1,2,3,4-tetrahydro-5H-pyrido[4,3-b]indole-5-carboxamide], for which the minimal effective concentration turned out to be 2.2 µM in the assay with Haemonchus contortus L3 and 16.8 µM with D. immitis microfilariae.

As for `O=C(NCc1ccnc(Cl)c1)n1c2c(c3c(C(F)(F)F)cccc31)CN(C/C=C/c1ccc(Cl)c(Cl)c1)CC2` [Example 159, (E)-N-((2-chloropyridin-4-yl)methyl)-2-(3-(3,4-dichlorophenyl)allyl)-9-(trifluoromethyl)-1,2,3,4-tetrahydro-5H-pyrido[4,3-b]indole-5-carboxamide], the minimal effective concentration stood at 18.2 µM in the assay on Haemonchus contortus L3 and 10 µM with D. immitis microfilariae.

As to `O=C(NCc1ccnc(Cl)c1)n1c2c(c3ccc(C(F)(F)F)cc31)CN(C/C=C/c1ccc(F)cc1)CC2` [Example 160, (E)-N-((2-chloropyridin-4-yl)methyl)-2-(3-(4-fluorophenyl)allyl)-7-(trifluoromethyl)-1,2,3,4-tetrahydro-5H-pyrido[4,3-b]indole-5-carboxamide], the minimal effective concentration is 1.8 µM in the assay on Haemonchus contortus L3 and 10 µM in the assay on D. immitis microfilariae.

As to `O=C(NCc1ccnc(Cl)c1)n1c2c(c3c(C(F)(F)F)cccc31)CN(C/C=C/c1ccc(F)cc1)CC2` [Example 161, (E)-N-((2-chloropyridin-4-yl)methyl)-2-(3-(4-fluorophenyl)allyl)-9-(trifluoromethyl)-1,2,3,4-tetrahydro-5H-pyrido[4,3-b]indole-5-carboxamide], the minimal effective concentration in the assay on Haemonchus contortus L3 was 2.1 µM; in the assay with D. immitis microfilariae it was 10 µM.

Turning to `O=C(NCc1ccnc(Cl)c1)n1c2c(c3c(C(F)(F)F)cccc31)CN(C/C=C/c1ccc(C(F)(F)F)cc1)CC2` [Example 162, (E)-N-((2-chloropyridin-4-yl)methyl)-9-(trifluoromethyl)-2-(3-(4-(trifluoromethyl)-phenyl)allyl)-1,2,3,4-tetrahydro-5H-pyrido[4,3-b]indole-5-carboxamide], the minimal effective concentration was above 100 µM with Haemonchus contortus L3 and 10 µM in the assay on D. immitis microfilariae.

As to `O=C(NCc1ccnc(F)c1)n1c2c(c3ccc(C(F)(F)F)cc31)CN(C/C=C/c1ccc(Cl)c(Cl)c1)CC2` [Example 166, (E)-2-(3-(3,4-dichlorophenyl)allyl)-N-((2-fluoropyridin-4-yl)methyl)-7-(trifluoromethyl)-1,2,3,4-tetrahydro-5H-pyrido[4,3-b]indole-5-carboxamide], the figures for the minimal effective concentration with Haemonchus contortus L3 and in the assay on D. immitis microfilariae were 10 µM and 5.7 µM, respectively.

As for `O=C(NCc1ccnc(Cl)c1)n1c2c(c3cc(F)ccc31)CN(C/C=C/c1ccc(Cl)c(Cl)c1)CC2` [Example 167, (E)-N-((2-chloropyridin-4-yl)methyl)-2-(3-(3,4-dichlorophenyl)allyl)-8-fluoro-1,2,3,4-tetrahydro-5H-pyrido[4,3-b]indole-5-carboxamide], the results for the minimal effective concentration in the assay on Haemonchus contortus L3 and in the assay with D. immitis microfilariae were 0.3 µM and 33 µM, respectively.

For `N#Cc1ccc(/C=C/CN2CCc3c(c4cc(F)ccc4n3C(=O)NCc3ccnc(Cl)c3)C2)cc1` [Example 168, (E)-N-((2-chloropyridin-4-yl)methyl)-2-(3-(4-cyanophenyl)allyl)-8-fluoro-1,2,3,4-tetrahydro-5H-pyrido[4,3-b]indole-5-carboxamide], the minimal effective concentration in the assay on Haemonchus contortus L3 was 0.5 µM; in the assay on D. immitis microfilariae, 10 µM.

With `O=C(NCc1ccnc(Cl)c1)n1c2c(c3cc(F)ccc31)CN(C/C=C/c1ccc(Cl)cc1)CC2` [Example 169, (E)-2-(3-(4-chlorophenyl)allyl)-N-((2-chloropyridin-4-yl)methyl)-8-fluoro-1,2,3,4-tetrahydro-5H-pyrido[4,3-b]indole-5-carboxamide], the minimal effective concentration is 0.1 µM in the assay on Haemonchus contortus L3 and 18.2 µM with D. immitis microfilariae.

In the case of `O=C(NCc1ccc(F)cc1)n1c2c(c3cc(F)ccc31)CN(C/C=C/c1ccc(Cl)cc1)CC2` [Example 170, (E)-2-(3-(4-chlorophenyl)allyl)-8-fluoro-N-(4-fluorobenzyl)-1,2,3,4-tetrahydro-5H-pyrido[4,3-b]indole-5-carboxamide], the minimal effective concentration in the assay on Haemonchus contortus L3 was above 100 µM; in the assay on D. immitis microfilariae, 1 µM.

With `N#Cc1cc2c3c(n(C(=O)NCc4ccnc(Cl)c4)c2cc1C(F)(F)F)CCN(C/C=C/c1ccc(Cl)cc1)C3` [Example 171, (E)-2-(3-(4-chlorophenyl)allyl)-N-((2-chloropyridin-4-yl)methyl)-8-cyano-7-(trifluoromethyl)-1,2,3,4-tetrahydro-5H-pyrido[4,3-b]indole-5-carboxamide], the minimal effective concentration with Haemonchus contortus L3 was determined as 0.5 µM; in the assay with D. immitis microfilariae it was 10 µM.

Regarding `N#Cc1cc2c(cc1F)c1c(n2C(=O)NCc2ccnc(Cl)c2)CCN(C/C=C/c2ccc(Cl)c(F)c2)C1` [Example 172, (E)-2-(3-(4-chloro-3-fluorophenyl)allyl)-N-((2-chloropyridin-4-yl)methyl)-7-cyano-8-fluoro-1,2,3,4-tetrahydro-5H-pyrido[4,3-b]indole-5-carboxamide], the values for the minimal effective concentration in the assay on Haemonchus contortus L3 and with D. immitis microfilariae were 10 µM and above 100 µM, respectively.

For the compound `N#Cc1ccc(/C=C/CN2CCc3c(c4cc(F)c(C#N)cc4n3C(=O)NCc3ccnc(Cl)c3)C2)cc1` [Example 173, (E)-N-((2-chloropyridin-4-yl)methyl)-7-cyano-2-(3-(4-cyanophenyl)allyl)-8-fluoro-1,2,3,4-tetrahydro-5H-pyrido[4,3-b]indole-5-carboxamide], the minimal effective concentration is 18.2 µM in the assay with Haemonchus contortus L3 and above 100 µM in the assay with D. immitis microfilariae.

On to `N#Cc1cc2c(cc1F)c1c(n2C(=O)NCc2ccnc(F)c2)CCN(C/C=C/c2ccc(Cl)cc2)C1` [Example 174, (E)-2-(3-(4-chlorophenyl)allyl)-7-cyano-8-fluoro-N-((2-fluoropyridin-4-yl)methyl)-1,2,3,4-tetrahydro-5H-pyrido[4,3-b]indole-5-carboxamide], for which the minimal effective concentration in the assay with Haemonchus contortus L3 was 57.4 µM; in the assay with D. immitis microfilariae, above 100 µM.

As to `N#Cc1cc2c(cc1F)c1c(n2C(=O)NCc2ccnc(Cl)c2)CCN(C/C=C/c2ccc(F)cc2)C1` [Example 175, (E)-N-((2-chloropyridin-4-yl)methyl)-7-cyano-8-fluoro-2-(3-(4-fluorophenyl)allyl)-1,2,3,4-tetrahydro-5H-pyrido[4,3-b]indole-5-carboxamide], the figures for the minimal effective concentration in the assay with Haemonchus contortus L3 and in the assay on D. immitis microfilariae were 1.8 µM and 10 µM, respectively.

For `Cc1cc2c3c(n(C(=O)NCc4ccnc(Cl)c4)c2cc1C#N)CCN(C/C=C/c1ccc(Cl)cc1)C3` [Example 176, (E)-2-(3-(4-chlorophenyl)allyl)-N-((2-chloropyridin-4-yl)methyl)-7-cyano-8-methyl-1,2,3,4-tetrahydro-5H-pyrido[4,3-b]indole-5-carboxamide], the minimal effective concentration worked out at 0.2 µM in the assay on Haemonchus contortus L3 and 3.3 µM in the assay with D. immitis microfilariae.

As to `N#Cc1cc2c3c(n(C(=O)NCc4ccnc(Cl)c4)c2cc1Cl)CCN(C/C=C/c1ccc(Cl)cc1)C3` [Example 177, (E)-7-chloro-2-(3-(4-chlorophenyl)allyl)-N-((2-chloropyridin-4-yl)methyl)-8-cyano-1,2,3,4-tetrahydro-5H-pyrido[4,3-b]indole-5-carboxamide], the results for the minimal effective concentration with Haemonchus contortus L3 and in the assay with D. immitis microfilariae were 0.3 µM and 5.7 µM, respectively.
